Target: T1, human TLR7 (Homo sapiens, UniProt Q9NYK1)
T1 construct: host or cells: HEK293 (HEK-Blue hTLR7)
T1 sequence (Q9NYK1 27-1049): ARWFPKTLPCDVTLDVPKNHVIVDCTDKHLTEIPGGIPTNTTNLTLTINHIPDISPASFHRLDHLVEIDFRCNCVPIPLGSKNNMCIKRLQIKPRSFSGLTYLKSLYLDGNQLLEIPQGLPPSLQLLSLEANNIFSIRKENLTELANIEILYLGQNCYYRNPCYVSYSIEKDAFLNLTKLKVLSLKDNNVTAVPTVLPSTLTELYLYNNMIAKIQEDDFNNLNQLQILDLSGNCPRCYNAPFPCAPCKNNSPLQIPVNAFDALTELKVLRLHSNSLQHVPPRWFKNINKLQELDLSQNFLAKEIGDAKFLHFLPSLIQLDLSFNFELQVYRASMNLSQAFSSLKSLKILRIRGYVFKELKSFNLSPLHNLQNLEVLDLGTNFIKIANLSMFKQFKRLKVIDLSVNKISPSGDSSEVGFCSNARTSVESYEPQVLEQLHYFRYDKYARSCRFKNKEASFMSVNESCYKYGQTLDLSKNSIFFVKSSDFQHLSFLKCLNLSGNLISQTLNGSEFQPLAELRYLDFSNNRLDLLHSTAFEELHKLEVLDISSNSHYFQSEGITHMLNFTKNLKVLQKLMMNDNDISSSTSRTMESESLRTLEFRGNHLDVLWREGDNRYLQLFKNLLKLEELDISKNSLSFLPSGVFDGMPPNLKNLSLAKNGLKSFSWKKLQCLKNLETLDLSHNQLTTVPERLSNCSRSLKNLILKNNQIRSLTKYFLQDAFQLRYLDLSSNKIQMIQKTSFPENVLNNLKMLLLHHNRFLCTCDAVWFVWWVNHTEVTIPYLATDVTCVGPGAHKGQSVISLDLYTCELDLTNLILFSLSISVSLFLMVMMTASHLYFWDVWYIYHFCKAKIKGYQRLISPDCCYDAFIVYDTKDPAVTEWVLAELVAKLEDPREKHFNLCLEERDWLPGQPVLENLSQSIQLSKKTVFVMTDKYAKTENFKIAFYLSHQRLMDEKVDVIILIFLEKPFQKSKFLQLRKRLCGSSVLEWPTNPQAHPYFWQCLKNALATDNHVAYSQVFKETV
Assay: HEK293-Blue hTLR7 Reporter Assay (QUANTI-BLUE, SEAP readout)
Format: cell-based
Settings: HEK-Blue-hTLR7 cells, 24 hrs treatment, Table 1, B1-B232
In short: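 HEK-Blue-hTLR7 cells expressing NF-κB/AP-1-driven SEAP, 4×10^4 cells/well, treated 24 h at 37° C with increasing compound concentrations. Supernatant SEAP measured with Quanti-blue substrate (10-30 min, 37° C) at 620-655 nm; EC50 from sigmoidal dose-response fit.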

In the case of `COCCOCCOc1nc(N)c2ncc(Cc3cnc(N4CCNCC4)c(C)c3)n2n1` [Compound B119, 2-(2-(2-methoxyethoxy)ethoxy)-7-((5-methyl-6-(piperazin-1-yl)pyridin-3-yl)methyl)imidazo[2,1-f][1,2,4]triazin-4-amine], the EC50 is reported as greater than 10000 nM.

In the case of `CCC(CC)Nc1nc(N)c2ncc(Cc3cnc(N4CCC(N(C)C)CC4)c(C)c3)n2n1` [Compound B209, 7-((6-(4-(dimethylamino)piperidin-1-yl)-5-methylpyridin-3-yl)methyl)-N2-(pentan-3-yl)imidazo[2,1-f][1,2,4]triazine-2,4-diamine], the EC50 is reported as 9.2 nM.

`CC[C@@H](C)Oc1nc(N)c2ncc(Cc3cnc(N4CCNCC4)c(C)c3)n2n1` [Compound B152, (R)-2-(sec-butoxy)-7-((5-methyl-6-(piperazin-1-yl)pyridin-3-yl)methyl)imidazo[2,1-f][1,2,4]triazin-4-amine] was tested, and the EC50 was 56 nM.

`Cc1cc(Cc2cnc3c(N)nc(NCCC(C)C)nn23)cnc1N1CCNCC1` [Compound B85, N^2-isopentyl-7-((5-methyl-6-(piperazin-1-yl)pyridin-3-yl)methyl)imidazo[2,1-f][1,2,4]triazine-2,4-diamine] gave an EC50 of 1360 nM.

In the case of `CCC[C@@H](C)Nc1nc(N)c2ncc(Cc3cnc(N4CCC(CNC)CC4)c(C)c3)n2n1` (single isomer, unassigned) [Compound B214], the EC50 is reported as 23 nM.

Compound `CCC(CC)Oc1nc(N)c2ncc(Cc3cnc(N4CCN(C(=O)CNC)CC4)c(C)c3)n2n1` [Compound B201, 1-(4-(5-((4-amino-2-(pentan-3-yloxy)imidazo[2,1-f][1,2,4]triazin-7-yl)methyl)-3-methylpyridin-2-yl)piperazin-1-yl)-2-(methylamino)ethan-1-one] has an EC50 of 28 nM.

For `CCCCOc1nc(N)c2ncc(Cc3cnc(N4C[C@@H]5C[C@H]4CN5)c(C)c3)n2n1` [Compound B168, 7-((6-((1S,4S)-2,5-diazabicyclo[2.2.1]heptan-2-yl)-5-methylpyridin-3-yl)methyl)-2-butoxyimidazo[2,1-f][1,2,4]triazin-4-amine], the EC50 was 124 nM.

Compound `CCC[C@@H](CCO)Nc1nc(N)c2ncc(Cc3cnc(N4CCNCC4)c(C)c3)n2n1` [Compound B226, (S)-3-((4-amino-7-((5-methyl-6-(piperazin-1-yl)pyridin-3-yl)methyl)imidazo[2,1-f][1,2,4]triazin-2-yl)amino)hexan-1-ol] has an EC50 of 46 nM.

In the case of `CC[C@H](O)CCOc1nc(N)c2ncc(Cc3cnc(N4CCNCC4)c(C)c3)n2n1` [Compound B217, (S)-1-((4-amino-7-((5-methyl-6-(piperazin-1-yl)pyridin-3-yl)methyl)imidazo[2,1-f][1,2,4]triazin-2-yl)oxy)pentan-3-ol], the EC50 is reported as 2440 nM.

`CCCCOc1nc(N)c2ncc(Cc3cnc(N4CCCCC4)c(C)c3)n2n1` [Compound B34, 2-butoxy-7-((5-methyl-6-(piperidin-1-yl)pyridin-3-yl)methyl)imidazo[2,1-f][1,2,4]triazin-4-amine] gave an EC50 greater than 10000 nM.

Work on `CCCCOc1nc(N)c2ncc(Cc3cnc(N4CCN(CCOC)CC4)c(C)c3)n2n1` [Compound B107, 2-butoxy-7-((6-(4-(2-methoxyethyl)piperazin-1-yl)-5-methylpyridin-3-yl)methyl)imidazo[2,1-f][1,2,4]triazin-4-amine] yielded an EC50 of 185 nM.

With `Cc1cc(Cc2cnc3c(N)nc(OCCOc4ccccc4)nn23)cnc1N1CCNCC1` [Compound B25, 7-((5-methyl-6-(piperazin-1-yl)pyridin-3-yl)methyl)-2-(2-phenoxyethoxy)imidazo[2,1-f][1,2,4]triazin-4-amine] the EC50 was greater than 10000 nM.

In the case of `CCCCOc1nc(N)c2ncc(Cc3cnc(N4CCN(C(=O)CCN(C)C)CC4)c(C)c3)n2n1` [Compound B37, 1-(4-(5-((4-amino-2-butoxyimidazo[2,1-f][1,2,4]triazin-7-yl)methyl)-3-methylpyridin-2-yl)piperazin-1-yl)-3-(dimethylamino)propan-1-one], the EC50 is reported as 148 nM.

`CCC[C@@H](C)Oc1nc(N)c2ncc(Cc3cnc(N4CCN(C(=O)CNC)CC4)c(C)c3)n2n1` [Compound B160, (R)-1-(4-(5-((4-amino-2-(pentan-2-yloxy)imidazo[2,1-f][1,2,4]triazin-7-yl)methyl)-3-methylpyridin-2-yl)piperazin-1-yl)-2-(methylamino)ethan-1-one] was tested, and the EC50 was 25 nM.

Compound `CCCCOc1nc(N)c2ncc(Cc3cnc(N4CCNCC4)cc3Cl)n2n1` [Compound B7, 2-butoxy-7-((4-chloro-6-(piperazin-1-yl)pyridin-3-yl)methyl)imidazo[2,1-f][1,2,4]triazin-4-amine] has an EC50 of 2380 nM.

`CCC[C@H](C)Oc1nc(N)c2ncc(Cc3cnc(N4CCN(C(=O)CN(C)C)CC4)c(C)c3)n2n1` [Compound B125, (S)-1-(4-(5-((4-amino-2-(pentan-2-yloxy)imidazo[2,1-f][1,2,4]triazin-7-yl)methyl)-3-methylpyridin-2-yl)piperazin-1-yl)-2-(dimethylamino)ethan-1-one] was tested, and the EC50 was 2.5 nM.

Compound `CCCCOc1nc(N)c2ncc(Cc3ccc(N4CCNCC4)cn3)n2n1` [Compound B16, 2-butoxy-7-((5-(piperazin-1-yl)pyridin-2-yl)methyl)imidazo[2,1-f][1,2,4]triazin-4-amine] has an EC50 of 1440 nM.

In the case of `CCCC(C)Nc1nc(N)c2ncc(Cc3cnc(N4CCC(CNC)CC4)c(C)c3)n2n1` (stereo not shown) [Compound B204, 7-((5-methyl-6-(4-((methylamino)methyl)piperidin-1-yl)pyridin-3-yl)methyl)-N2-(pentan-2-yl)imidazo[2,1-f][1,2,4]triazine-2,4-diamine], the EC50 is reported as 7.3 nM.

In the case of `CCCCOc1nc(N)c2ncc(Cc3cc(C)c(N4CCNCC4)cn3)n2n1` [Compound B33, 2-butoxy-7-((4-methyl-5-(piperazin-1-yl)pyridin-2-yl)methyl)imidazo[2,1-f][1,2,4]triazin-4-amine], the EC50 is reported as 218 nM.

With `Cc1cc(Cc2cnc3c(N)nc(OCC4CCOCC4)nn23)cnc1N1CCNCC1` [Compound B194, 7-((5-methyl-6-(piperazin-1-yl)pyridin-3-yl)methyl)-2-((tetrahydro-2H-pyran-4-yl)methoxy)imidazo[2,1-f][1,2,4]triazin-4-amine] the EC50 was 80 nM.

`CCCC(CCC)Oc1nc(N)c2ncc(Cc3cnc(N4CCN(C(=O)CNC)CC4)c(C)c3)n2n1` [Compound B197, 1-(4-(5-((4-amino-2-(heptan-4-yloxy)imidazo[2,1-f][1,2,4]triazin-7-yl)methyl)-3-methylpyridin-2-yl)piperazin-1-yl)-2-(methylamino)ethan-1-one] gave an EC50 of 3.9 nM.

`CCCC(CCC)Oc1nc(N)c2ncc(Cc3cnc(N4CCC(N(C)C)CC4)c(C)c3)n2n1` [Compound B186, 7-((6-(4-(dimethylamino)piperidin-1-yl)-5-methylpyridin-3-yl)methyl)-2-(heptan-4-yloxy)imidazo[2,1-f][1,2,4]triazin-4-amine] gave an EC50 of 4.9 nM.

“1-((4-amino-7-((5-methyl-6-(piperazin-1-yl)pyridin-3-yl)methyl)imidazo[2,1-f][1,2,4]triazin-2-yl)oxy)hexan-3-ol [Compound B157]” was tested, and the EC50 was 667 nM.

With `CCCCOc1nc(N)c2ncc(Cc3ccc(N4CCNCC4)nc3)n2n1` [Compound B6, 2-butoxy-7-((6-(piperazin-1-yl)pyridin-3-yl)methyl)imidazo[2,1-f][1,2,4]triazin-4-amine] the EC50 was 421 nM.

Work on “2-butoxy-7-((6-(piperidin-4-yl)-5-(trifluoromethyl)pyridin-3-yl)methyl)imidazo[2,1-f][1,2,4]triazin-4-amine [Compound B28]” yielded an EC50 of 302 nM.

For `CCCCOc1nc(N)c2ncc(Cc3cnc(N4CCN(C)CC4)c(Cl)c3)n2n1` [Compound B1, 2-butoxy-7-((5-chloro-6-(4-methylpiperazin-1-yl)pyridin-3-yl)methyl)imidazo[2,1-f][1,2,4]triazin-4-amine], the EC50 was 501 nM.

`CCCCOc1nc(N)c2ncc(Cc3cnc(N4C[C@H]5C[C@@H]4CN5)c(C)c3)n2n1` [Compound B79, 7-((6-((1R,4R)-2,5-diazabicyclo[2.2.1]heptan-2-yl)-5-methylpyridin-3-yl)methyl)-2-butoxyimidazo[2,1-f][1,2,4]triazin-4-amine] was tested, and the EC50 was 505 nM.

Work on `CC[C@H](C)Oc1nc(N)c2ncc(Cc3cnc(N4CCN(C(=O)CNC)CC4)c(C)c3)n2n1` [Compound B146, (S)-1-(4-(5-((4-amino-2-(sec-butoxy)imidazo[2,1-f][1,2,4]triazin-7-yl)methyl)-3-methylpyridin-2-yl)piperazin-1-yl)-2-(methylamino)ethan-1-one] yielded an EC50 of 10 nM.
